Measured values from patent publication US20100267561A1, “HERBICIDAL PYRIDAZINONE DERIVATIVES” (priority 2007, published 2010).

Experiments:
Assay in all cases: Test E pre-/postemergence plant response
Assay type in all cases: in vivo
[1] = tested on: common purslane (Portulaca oleracea); settings: scale 0 to 100
Text: (§1) Seeds of plant species selected from bermudagrass (Cynodon dactylon), Surinam grass (Brachiaria decumbens), large crabgrass (Digitaria sanguinalis), green foxtail (Setaria viridis), goosegrass (Eleusine indica), johnsongrass (Sorghum halepense), kochia (Kochia scoparia), pitted morningglory (Ipomoea lacunosa), purple nutsedge (Cyperus rotundus), common ragweed (Ambrosia elation), black mustard (Brassica nigra), guineagrass (Panicum maximum), dallisgrass (Paspalum dilatatum), barnyardgrass (Echinochloa crus-galli), southern (S.) sandbur (Cenchrus echinatus), common sowthistle (Sonchus oleraceous), prickly sida (Sida spinosa), Italian ryegrass (Lolium multiflorum), common purslane (Portulaca oleracea), broadleaf signalgrass (Brachiaria platyphylla), common groundsel (Senecio vulgaris), common chickweed (Stellaria media), Virginia (V.) dayflower (Commelina virginica), tropical (T.) spiderwort (Commelina benghalensis), annual bluegrass (Poa annua), naked crabgrass (Digitaria nuda), itchgrass (Rottboellia cochinchinensis), quackgrass (Elytrigia repens), Canada horseweed (Conyza canadensis), field bindweed (Convolvulus arvensis), spanishneedles (Bidens bipinnata), common mallow (Malva sylvestris) and Russian thistle (Salsola kali) were planted and treated preemergence with test chemicals formulated in a non-phytotoxic solvent mixture which included a surfactant. At the same time, plants selected from these weed species were treated with postemergence applications of some of the test chemicals formulated in the same manner. Plants ranged in height from 2 to 18 cm (1- to 4-leaf stage) for postemergence treatments.
(§2) Treated plants and controls were maintained in a greenhouse for 14 to 21 days, after which time all species were compared to controls and visually evaluated. Plant response ratings, summarized in Table E, are based on a scale of 0 to 100 where 0 is no effect and 100 is complete control. A dash (-) response means no test result.

[2] = tested on: barnyardgrass (Echinochloa crus-galli); settings: scale 0 to 100
Text: as §1, §2

[3] = tested on: quackgrass (Elytrigia repens); settings: scale 0 to 100
Text: as §1, §2

[4] = tested on: pitted morningglory (Ipomoea lacunosa); settings: scale 0 to 100
Text: as §1, §2

[5] = tested on: southern (S.) sandbur (Cenchrus echinatus); settings: scale 0 to 100
Text: as §1, §2

[6] = tested on: common mallow (Malva sylvestris); settings: Postemergence, scale 0 to 100
Text: as §1, §2

[7] = tested on: bermudagrass (Cynodon dactylon); settings: scale 0 to 100
Text: as §1, §2

For `CCc1cc(-c2ccc(Cl)cc2)nn1-c1c(OC(=O)C(C)(C)C)cnn(C)c1=O` [Compound 40], the “Plant response rating, Purslane” value ([1]; 16 g ai/ha, Preemergence) was 0, the “Plant response rating, Purslane” value ([1]; 31 g ai/ha, Preemergence) was 0 and the “Plant response rating, Purslane” value ([1]; 62 g ai/ha, Preemergence) was 0. For the same molecule, the “Plant response rating, Purslane” value ([1]; Postemergence, 8 g ai/ha) was 0, the “Plant response rating, Purslane” value ([1]; Postemergence, 16 g ai/ha) was 0 and the “Plant response rating, Purslane” value ([1]; Postemergence, 31 g ai/ha) was 0. For the same molecule, the “Plant response rating, Purslane” value ([1]; Postemergence, 62 g ai/ha) was 0, the “Plant response rating, Barnyardgrass” value ([2]; 8 g ai/ha, Preemergence) was 75 and the “Plant response rating, Barnyardgrass” value ([2]; 16 g ai/ha, Preemergence) was 95. The “Plant response rating, Barnyardgrass” value ([2]; 31 g ai/ha, Preemergence) was 100, the “Plant response rating, Barnyardgrass” value ([2]; 62 g ai/ha, Preemergence) was 100 and the “Plant response rating, Barnyardgrass” value ([2]; Postemergence, 8 g ai/ha) was 100. The “Plant response rating, Barnyardgrass” value ([2]; Postemergence, 16 g ai/ha) was 100, the “Plant response rating, Barnyardgrass” value ([2]; Postemergence, 31 g ai/ha) was 100 and the “Plant response rating, Barnyardgrass” value ([2]; Postemergence, 62 g ai/ha) was 100. The “Plant response rating, Quackgrass” value ([3]; 16 g ai/ha, Preemergence) was 60, the “Plant response rating, Quackgrass” value ([3]; 31 g ai/ha, Preemergence) was 80 and the “Plant response rating, Quackgrass” value ([3]; 62 g ai/ha, Preemergence) was 90. For the same molecule, the “Plant response rating, Quackgrass” value ([3]; Postemergence, 8 g ai/ha) was 30, the “Plant response rating, Quackgrass” value ([3]; Postemergence, 16 g ai/ha) was 50 and the “Plant response rating, Quackgrass” value ([3]; Postemergence, 31 g ai/ha) was 70. The “Plant response rating, Quackgrass” value ([3]; Postemergence, 62 g ai/ha) was 95, the “Plant response rating, Morningglory” value ([4]; 16 g ai/ha, Preemergence) was 0 and the “Plant response rating, Morningglory” value ([4]; 31 g ai/ha, Preemergence) was 0. For the same molecule, the “Plant response rating, Morningglory” value ([4]; 62 g ai/ha, Preemergence) was 0, the “Plant response rating, Morningglory” value ([4]; Postemergence, 8 g ai/ha) was 0 and the “Plant response rating, Morningglory” value ([4]; Postemergence, 16 g ai/ha) was 0. For the same molecule, the “Plant response rating, Morningglory” value ([4]; Postemergence, 31 g ai/ha) was 0, the “Plant response rating, Morningglory” value ([4]; Postemergence, 62 g ai/ha) was 0 and the “Plant response rating, Sandbur, S.” value ([5]; 16 g ai/ha, Preemergence) was 98. For the same molecule, the “Plant response rating, Sandbur, S.” value ([5]; 31 g ai/ha, Preemergence) was 100, the “Plant response rating, Sandbur, S.” value ([5]; 62 g ai/ha, Preemergence) was 100 and the “Plant response rating, Sandbur, S.” value ([5]; Postemergence, 8 g ai/ha) was 75. For the same molecule, the “Plant response rating, Sandbur, S.” value ([5]; Postemergence, 16 g ai/ha) was 85, the “Plant response rating, Sandbur, S.” value ([5]; Postemergence, 31 g ai/ha) was 95 and the “Plant response rating, Sandbur, S.” value ([5]; Postemergence, 62 g ai/ha) was 100. For the same molecule, the “Plant response rating, Mallow” value ([6]; 8 g ai/ha) was 0, the “Plant response rating, Mallow” value ([6]; 16 g ai/ha) was 0 and the “Plant response rating, Mallow” value ([6]; 31 g ai/ha) was 0. For the same molecule, the “Plant response rating, Mallow” value ([6]; 62 g ai/ha) was 0, the “Plant response rating, Bermudagrass” value ([7]; 8 g ai/ha, Preemergence) was 40 and the “Plant response rating, Bermudagrass” value ([7]; 16 g ai/ha, Preemergence) was 80. The “Plant response rating, Bermudagrass” value ([7]; 31 g ai/ha, Preemergence) was 98, the “Plant response rating, Bermudagrass” value ([7]; 62 g ai/ha, Preemergence) was 100 and the “Plant response rating, Bermudagrass” value ([7]; Postemergence, 8 g ai/ha) was 30. The “Plant response rating, Bermudagrass” value ([7]; Postemergence, 16 g ai/ha) was 50, the “Plant response rating, Bermudagrass” value ([7]; Postemergence, 31 g ai/ha) was 60 and the “Plant response rating, Bermudagrass” value ([7]; Postemergence, 62 g ai/ha) was 70.

With `CCc1cc(-c2ccc(Cl)cc2)nn1-c1c(OS(C)(=O)=O)cnn(C)c1=O` [Compound 39] the “Plant response rating, Purslane” value ([1]; 16 g ai/ha, Preemergence) was 0, the “Plant response rating, Purslane” value ([1]; 31 g ai/ha, Preemergence) was 0 and the “Plant response rating, Purslane” value ([1]; 62 g ai/ha, Preemergence) was 0. The “Plant response rating, Purslane” value ([1]; Postemergence, 8 g ai/ha) was 0, the “Plant response rating, Purslane” value ([1]; Postemergence, 16 g ai/ha) was 0 and the “Plant response rating, Purslane” value ([1]; Postemergence, 31 g ai/ha) was 0. For the same molecule, the “Plant response rating, Purslane” value ([1]; Postemergence, 62 g ai/ha) was 0, the “Plant response rating, Barnyardgrass” value ([2]; 8 g ai/ha, Preemergence) was 90 and the “Plant response rating, Barnyardgrass” value ([2]; 16 g ai/ha, Preemergence) was 90. The “Plant response rating, Barnyardgrass” value ([2]; 31 g ai/ha, Preemergence) was 100, the “Plant response rating, Barnyardgrass” value ([2]; 62 g ai/ha, Preemergence) was 100 and the “Plant response rating, Barnyardgrass” value ([2]; Postemergence, 8 g ai/ha) was 100. The “Plant response rating, Barnyardgrass” value ([2]; Postemergence, 16 g ai/ha) was 100, the “Plant response rating, Barnyardgrass” value ([2]; Postemergence, 31 g ai/ha) was 100 and the “Plant response rating, Barnyardgrass” value ([2]; Postemergence, 62 g ai/ha) was 100. For the same molecule, the “Plant response rating, Quackgrass” value ([3]; 16 g ai/ha, Preemergence) was 60, the “Plant response rating, Quackgrass” value ([3]; 31 g ai/ha, Preemergence) was 95 and the “Plant response rating, Quackgrass” value ([3]; 62 g ai/ha, Preemergence) was 100. The “Plant response rating, Quackgrass” value ([3]; Postemergence, 8 g ai/ha) was 0, the “Plant response rating, Quackgrass” value ([3]; Postemergence, 16 g ai/ha) was 30 and the “Plant response rating, Quackgrass” value ([3]; Postemergence, 31 g ai/ha) was 60. The “Plant response rating, Quackgrass” value ([3]; Postemergence, 62 g ai/ha) was 60, the “Plant response rating, Morningglory” value ([4]; 16 g ai/ha, Preemergence) was 0 and the “Plant response rating, Morningglory” value ([4]; 31 g ai/ha, Preemergence) was 0. The “Plant response rating, Morningglory” value ([4]; 62 g ai/ha, Preemergence) was 0, the “Plant response rating, Morningglory” value ([4]; Postemergence, 8 g ai/ha) was 0 and the “Plant response rating, Morningglory” value ([4]; Postemergence, 16 g ai/ha) was 0. For the same molecule, the “Plant response rating, Morningglory” value ([4]; Postemergence, 31 g ai/ha) was 0, the “Plant response rating, Morningglory” value ([4]; Postemergence, 62 g ai/ha) was 0 and the “Plant response rating, Sandbur, S.” value ([5]; 16 g ai/ha, Preemergence) was 90. The “Plant response rating, Sandbur, S.” value ([5]; 31 g ai/ha, Preemergence) was 100, the “Plant response rating, Sandbur, S.” value ([5]; 62 g ai/ha, Preemergence) was 100 and the “Plant response rating, Sandbur, S.” value ([5]; Postemergence, 8 g ai/ha) was 75. The “Plant response rating, Sandbur, S.” value ([5]; Postemergence, 16 g ai/ha) was 85, the “Plant response rating, Sandbur, S.” value ([5]; Postemergence, 31 g ai/ha) was 95 and the “Plant response rating, Sandbur, S.” value ([5]; Postemergence, 62 g ai/ha) was 100. The “Plant response rating, Mallow” value ([6]; 8 g ai/ha) was 0, the “Plant response rating, Mallow” value ([6]; 16 g ai/ha) was 0 and the “Plant response rating, Mallow” value ([6]; 31 g ai/ha) was 0. The “Plant response rating, Mallow” value ([6]; 62 g ai/ha) was 0, the “Plant response rating, Bermudagrass” value ([7]; 8 g ai/ha, Preemergence) was 20 and the “Plant response rating, Bermudagrass” value ([7]; 16 g ai/ha, Preemergence) was 75. The “Plant response rating, Bermudagrass” value ([7]; 31 g ai/ha, Preemergence) was 95, the “Plant response rating, Bermudagrass” value ([7]; 62 g ai/ha, Preemergence) was 100 and the “Plant response rating, Bermudagrass” value ([7]; Postemergence, 8 g ai/ha) was 35. The “Plant response rating, Bermudagrass” value ([7]; Postemergence, 16 g ai/ha) was 40, the “Plant response rating, Bermudagrass” value ([7]; Postemergence, 31 g ai/ha) was 50 and the “Plant response rating, Bermudagrass” value ([7]; Postemergence, 62 g ai/ha) was 65.
